# In paper PMC6112376, “Comprehensive Analyses and Prioritization of Tox21 10K Chemicals Affecting Mitochondrial Function by in-Depth Mechanistic Studies” (Environmental Health Perspectives, 2018):
# Read-outs that look alike come from different tables or passages of the source.
# Columns and labels:
# [1] = system: rat primary hepatocytes
# [2] = target: T1, mitochondrial respiratory chain complex II (Rattus norvegicus, UniProt P21913+Q641Z9+Q6PCT8+Q920L2); experiment: Respiratory chain complex II activity; type: biochemical; details: tested up to 100μM
# T1 construct: Submitochondrial particles were prepared by subjecting the intact rat mitochondria, isolated as described above, to three successive freeze–thaw cycles; from tissue; host or cells: rat liver mitochondria (submitochondrial particles)
# T1 sequence (Q920L2 35-656): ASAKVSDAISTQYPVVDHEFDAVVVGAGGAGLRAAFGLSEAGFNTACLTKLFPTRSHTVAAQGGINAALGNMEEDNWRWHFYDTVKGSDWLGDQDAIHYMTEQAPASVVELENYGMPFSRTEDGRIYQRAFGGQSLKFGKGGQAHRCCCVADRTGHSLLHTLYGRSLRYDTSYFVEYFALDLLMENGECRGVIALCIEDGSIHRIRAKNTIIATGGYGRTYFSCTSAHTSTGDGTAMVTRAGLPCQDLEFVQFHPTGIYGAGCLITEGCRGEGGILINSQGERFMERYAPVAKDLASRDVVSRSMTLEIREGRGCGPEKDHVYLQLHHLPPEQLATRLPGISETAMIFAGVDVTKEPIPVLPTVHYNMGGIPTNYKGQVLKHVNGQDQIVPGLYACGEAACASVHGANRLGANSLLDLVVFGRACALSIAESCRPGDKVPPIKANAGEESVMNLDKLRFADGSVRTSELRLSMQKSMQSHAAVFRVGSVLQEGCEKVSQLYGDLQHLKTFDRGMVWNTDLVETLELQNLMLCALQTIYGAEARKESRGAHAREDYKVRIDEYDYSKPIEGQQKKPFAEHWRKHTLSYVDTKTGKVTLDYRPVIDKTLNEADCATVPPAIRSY
# T1 sequence (P21913 31-282): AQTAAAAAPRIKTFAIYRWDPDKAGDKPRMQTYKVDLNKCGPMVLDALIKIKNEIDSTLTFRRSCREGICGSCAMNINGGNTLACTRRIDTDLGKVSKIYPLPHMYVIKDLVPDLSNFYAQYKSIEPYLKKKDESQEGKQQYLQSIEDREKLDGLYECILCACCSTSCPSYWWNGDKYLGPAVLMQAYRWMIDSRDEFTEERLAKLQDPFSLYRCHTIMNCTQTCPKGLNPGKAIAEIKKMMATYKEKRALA
# T1 sequence (Q641Z9 1-169): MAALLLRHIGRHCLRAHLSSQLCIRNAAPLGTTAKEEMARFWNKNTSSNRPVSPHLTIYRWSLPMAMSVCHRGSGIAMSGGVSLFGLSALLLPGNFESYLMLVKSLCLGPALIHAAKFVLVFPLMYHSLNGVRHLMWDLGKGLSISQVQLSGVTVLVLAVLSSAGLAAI
# T1 sequence (Q6PCT8 57-159): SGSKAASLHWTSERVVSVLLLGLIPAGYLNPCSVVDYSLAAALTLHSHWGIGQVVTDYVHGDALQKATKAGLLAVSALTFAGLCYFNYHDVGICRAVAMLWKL
# [3] = system: isolated rat liver mitochondria; experiment: Oxygen consumption, Clark-type oxygen electrode; type: biochemical
# [4] = system: Caenorhabditis elegans (Bristol N2); details: Bristol N2 (wild type), Caenorhabditis elegans, in vivo
# [5] = system: mitochondrial respiratory chain complex IV; type: biochemical, rat
# [6] = system: hNSC; experiment: MMP assay in human neural stem cells (hNSC); type: cell-based; details: Homo sapiens, Neural stem cell, 1 h, read-out: hNSC IC50 (MMP)
# [7] = system: HepG2 cells; experiment: ROS-Glo hydrogen peroxide (ROS) assay; type: cell-based, human
# [8] = system: mitochondrial respiratory chain complex III; type: biochemical, rat
# [9] = system: HepG2 cells; experiment: cells; details: Homo sapiens
# [10] = system: mitochondrial respiratory chain complex V; type: biochemical, rat
# [11] = system: Caenorhabditis elegans (Bristol N2); experiment: C. elegans larval development and growth assay
# [12] = system: HepG2 cells; experiment: Intracellular ATP content (cell viability) assay; type: cell-based, human; details: Homo sapiens, HepG2, 40 h
# [13] = system: mitochondrial respiratory chain complex I; type: biochemical, rat; details: at 100μM
# [14] = system: HepG2 cells; details: cited from earlier work
# [15] = system: rat primary hepatocytes; experiment: MMP assay in rat primary hepatocytes; details: Rattus norvegicus, Hepatocyte
# [16] = system: p53 (p53-bla HCT-116 cells); experiment: p53 β-lactamase reporter gene assay; type: cell-based, human; details: 16 h incubation; mean±SD of three experiments
# [17] = system: Nrf2/ARE (ARE-bla HepG2 cells); experiment: ARE β-lactamase reporter gene assay; type: cell-based, human; details: 16 h incubation; mean±SD of three experiments
# [18] = system: Caenorhabditis elegans strain PE255; experiment: In vivo C. elegans ATP status assay
# [19] = system: HeLa cells expressing YFP-Parkin; experiment: Parkin translocation assay; type: cell-based, human
smiles,measurement,setting,value
"CC[C@@H](C(=O)[C@@H](C)[C@@H](O)[C@H](C)CCc1ccc(C)c(O)c1C(=O)O)[C@H]1O[C@](CC)([C@H]2CC[C@](O)(CC)[C@H](C)O2)C[C@@H]1C [Lasalocid sodium, reference compound]",MMP assays efficacy (%) Rat Hepatocytes,[1],-105±1%
same,Rat hepatocytes (efficacy) (MMP),[1],1.27±0.23 ( −95.6±2.35 ) %
same,Complex II % inhibition (activity call),[2],Inactive
same,Potential Mechanism,[3],Uncoupler + Inhibitor
same,"I-ADP, % of control (O2 consumption rate)",[3]; 0.032 µM,102 (33.0) % of control
same,"I-sub, % of control (O2 consumption rate)",[3]; 0.032 µM,114 (12.4) % of control
same,"II-ADP, % of control (O2 consumption rate)",[3]; 0.032 µM,87 (52.0) % of control
same,"II-sub, % of control (O2 consumption rate)",[3]; 0.032 µM,98 (20.1) % of control
same,"I-ADP, % of control (O2 consumption rate)",[3]; 0.16 µM,105 (34.0) % of control
same,"I-sub, % of control (O2 consumption rate)",[3]; 0.16 µM,118 (12.9) % of control
same,"II-ADP, % of control (O2 consumption rate)",[3]; 0.16 µM,72 (43.1) % of control
same,"II-sub, % of control (O2 consumption rate)",[3]; 0.16 µM,107 (22.1) % of control
same,"I-ADP, % of control (O2 consumption rate)",[3]; 0.8 µM,90 (29.2) % of control
same,"I-sub, % of control (O2 consumption rate)",[3]; 0.8 µM,120 (13.1) % of control
same,"II-ADP, % of control (O2 consumption rate)",[3]; 0.8 µM,57 (34.1) % of control
same,"II-sub, % of control (O2 consumption rate)",[3]; 0.8 µM,115 (23.6) % of control
same,"I-ADP, % of control (O2 consumption rate)",[3]; 4 µM,81 (26.3) % of control
same,"I-sub, % of control (O2 consumption rate)",[3]; 4 µM,164 (17.9) % of control
same,"II-ADP, % of control (O2 consumption rate)",[3]; 4 µM,60 (35.9) % of control
same,"II-sub, % of control (O2 consumption rate)",[3]; 4 µM,151 (31.2) % of control
same,"I-ADP, % of control (O2 consumption rate)",[3]; 20 µM,107 (34.7) % of control
same,"I-sub, % of control (O2 consumption rate)",[3]; 20 µM,347 (37.8) % of control
same,"II-ADP, % of control (O2 consumption rate)",[3]; 20 µM,48 (28.6) % of control
same,"II-sub, % of control (O2 consumption rate)",[3]; 20 µM,160 (33.0) % of control
same,"I-ADP, % of control (O2 consumption rate)",[3]; 100 µM,16 (8.1) % of control
same,"I-sub, % of control (O2 consumption rate)",[3]; 100 µM,32 (6.9) % of control
same,"II-ADP, % of control (O2 consumption rate)",[3]; 100 µM,20 (11.6) % of control
same,"II-sub, % of control (O2 consumption rate)",[3]; 100 µM,39 (13.7) % of control
same,"LEC (lowest effect concentration), larval growth assay",[4],≤ 10 µM
same,Complex IV % inhibition (activity call),[5],Inactive
same,IC50,[6],540 nM
same,ROS (HepG2) EC50,[7],Inactive
same,Complex III % inhibition (activity call),[8],Inactive
same,IC50,"[9]; HepG2, 1 h, read-out: HepG2 IC50 Galactose (MMP)",1.58 µM
same,IC50,"[9]; HepG2, 1 h, read-out: HepG2 IC50 Glucose (MMP)",1.54 µM
same,IC50,"[9]; HepG2, read-out: MMP assays IC50 (µM) HepG2",1.38 µM
same,Emax,"[9]; HepG2, read-out: MMP assays efficacy (%) HepG2",99%
same,Complex V % inhibition (activity call),[10],Inactive
same,EXT: mean difference in nematode size relative to plate controls,[11]; 0.5 µM,0.01876
same,EXT: mean difference in nematode size relative to plate controls,[11]; 1 µM,-0.05443
same,EXT: mean difference in nematode size relative to plate controls,[11]; 5 µM,0.2782
same,EXT: mean difference in nematode size relative to plate controls,[11]; 10 µM,0.2152
same,EXT: mean difference in nematode size relative to plate controls,[11]; 25 µM,0.9725
same,EXT: mean difference in nematode size relative to plate controls,[11]; 50 µM,1.753
same,EXT: mean difference in nematode size relative to plate controls,[11]; 75 µM,1.778
same,EXT: mean difference in nematode size relative to plate controls,[11]; 100 µM,1.712
same,effect on larval growth (in words),[11]; 0.5–100μM,inhibited
same,minimal effective concentration,"[11]; Caenorhabditis elegans, read-out: LEC EXT: lowest effect concentration for extinction, a measure of nematode size",5 µM
same,IC50,"[12]; read-out: ATP (HepG2, galactose) IC50",35400 nM
same,IC50,"[12]; read-out: ATP (HepG2, glucose) IC50",30700 nM
same,Complex I % inhibition,[13],18.3±6.97 at 100μM %
same,MMP assays efficacy (%) qHTS-HepG2,[14],-107±4%
same,IC50,"[14]; read-out: MMP assays IC50 (µM), qHTS-HepG2",1.14 ± 0.07 µM
same,IC50,"[15]; 1 h, read-out: Rat hepatocytes IC50 (MMP)",1.27 µM
same,IC50,[15]; read-out: MMP assays IC50 (µM) Rat Hepatocytes,1.3 ± 0.29 µM
same,p53 (HCT-116) EC50,[16],Inactive
same,ARE (HepG2) EC50,[17],Inactive
same,LUM: mean difference in luminescence (ATP content) relative to plate controls,[18]; 0.5 µM,-0.09691
same,LUM: mean difference in luminescence (ATP content) relative to plate controls,[18]; 1 µM,0.04489
same,LUM: mean difference in luminescence (ATP content) relative to plate controls,[18]; 5 µM,0.262
same,LUM: mean difference in luminescence (ATP content) relative to plate controls,[18]; 10 µM,0.184
same,LUM: mean difference in luminescence (ATP content) relative to plate controls,[18]; 25 µM,0.7982
same,LUM: mean difference in luminescence (ATP content) relative to plate controls,[18]; 50 µM,0.8669
same,LUM: mean difference in luminescence (ATP content) relative to plate controls,[18]; 75 µM,1.247
same,LUM: mean difference in luminescence (ATP content) relative to plate controls,[18]; 100 µM,1.4191
same,effect on ATP content (in words),[18]; 0.5–100μM,inhibited
same,minimal effective concentration,"[18]; Caenorhabditis elegans, read-out: LEC LUM: lowest effect concentration for luminescence, a measure of nematode ATP content",25 µM
same,Parkin recruitment,[19],Inactive
